Results from the NIST ThermoML archive (doi:10.1016/j.jct.2005.08.001).
Numbers after ± are expanded uncertainties.

Legend:
[1] = 313.15 K, Liquid; for vapor or sublimation pressure: Closed cell (Static) method; for mass density: 101.33 kPa, Pycnometric method
[2] = refractive index (Na D-line) (dimensionless); details: 298.15 K; 101.33 kPa; Liquid; Standard Abbe refractometry

vapor or sublimation pressure [1] [kPa] | mass density [1] [kg/m3] | refractive index [2] | SMILES
7.375 ± 0.025 |  |  | O [water]
0.658 ± 0.01 | 922.4 ± 0.6 | 1.43556 ± 0.00075 | CC(=O)N(C)C [N,N-dimethylethanamide]
17.89 ± 0.087 | 772.2 ± 0.5 | 1.3592 ± 0.00075 | CCO [ethanol]
